The values below come from patent publication US20240271088A1, “METHOD FOR MAINTAINING AND AMPLIFYING HUMAN PRIMORDIAL GERM CELLS / HUMAN PRIMORDIAL GERM CELL-LIKE CELLS” (KYOTO UNIVERSITY, priority 2020, published 2024).

Experiment [1] relates to BT+AG+ hPGCLC (d6 hPGCLCs from 585B1 BTAG hiPSC). The experiment is described as follows: hPGCLC expansion culture on m220 feeders with combinations of chemical substances and cytokines; BT+AG+ cells counted by FACS. It is filed as cell-based, human. The conditions noted are these: 10 days of culture, GMEM, 15% KSR, 2.5% FBS, 100 ng/ml SCF, forskolin 10 μM, rolipram 10 μM, cyclosporin A 5 μM, LIF 10 ng/ml, EGF 50 ng/ml, bFGF 20 ng/ml. The procedure:
FIG. 1B Exploration of conditions for expanding hPGCLC in vitro. (B) (Left) Scheme for exploration of conditions for BT^+AG^+ cell proliferation. (Right) Plot showing the number of BT^+AG^+ cells after 10 days of culture under the indicated conditions determined by FACS analysis. (Blue) Combination of chemical substances [forskolin (10 μM), rolipram (10 μM), and cyclosporin A (5 μM)] used for BT^+AG^+ cell proliferation. (Yellow) Combination of cytokines [LIF (10 ng/ml), EGF (50 ng/ml), and basic fibroblast growth factor (bFGF: 20 ng/ml)] used for BT^+AG^+ cell proliferation. About 5000 hPGCLCs were used as the starting cell population. […] Conditions for mPGCLC expansion: green. Conditions without additional chemical substance/cytokine: gray.
In order to examine the influence of cytokine and/or chemical substances on hPGCLC proliferation, hPGCLC was treated with MMC in GK15 containing 2.5% FBS and 100 ng/mL SCF, and supplemented with cytokine and/or chemical substances [10 ng/mL LIF; 50 ng/mL EGF; 20 ng/mL bFGF; 10 μM forskolin; 10 μM rolipram; 5 μM cyclosporin A (SIGMA, 30024)], and the cells were passaged every 10 days [see the section of Fluorescence activated cell sorting]. On the day of passage, about 5.0×10^3 cells were plated on 24-well plates (0.5 mL of medium containing 10 μM Y27632), and 0.5 mL of medium free of Y27632 was 0.5 mL added the next day. […]

Experiment [2] deals with 585B1-868BTAG iPSC-derived PGCLCs. The experiment is described as follows: hPGCLC maintenance and expansion culture with added Wnt signal transduction inhibitors; growth curve and enrichment score by FACS. The experiment is classed as cell-based, human. As to conditions: control DMSO. From the text: FIG. 14A A drawing showing the suppressive effect of Wnt signal transduction inhibitor on PGCLC dedifferentiation. […] Growth curve of BTAG double-positive cells under each condition in 30 day culture (n=3). The average values of the three experiments were plotted and connected with a straight line. The number after the lowercase letter “c” indicates the number of days of culture.
FIG. 14B A drawing showing the suppressive effect of Wnt signal transduction inhibitor on PGCLC dedifferentiation. […] Enrichment score (n=3) under each condition at C10, C20 and C30. The average values were plotted with red diamonds. Using the DMSO-added group as a control group, a multiple comparison test was performed by Dunnet method. *:p<0.1, **:p<0.05 […]
Further detailed analysis of the FACS analysis results of 585B1-868BTAG (BLIMP1-tdTomato and AP2γ-EGFP) iPS cell-derived proliferated human PGCLC was performed. In the FACS analysis, the expression of the human cell-specific cell surface antigen TRA-1-85 in the population excluding dead cells by DRAQ7 staining was analyzed. […]
Proliferation culture was performed using 585B1-868BTAG iPSC-derived PGCLCs on day 6 of differentiation induction. […] Cells were passaged and counted by FACS every 10 days to draw a proliferation curve. In addition, an enrichment score was calculated at respective culture day numbers.
(In general: Flow cytometry measures light scatter and fluorescence of single cells or particles in a stream.)

For “FGF: basic fibroblast growth factor, 20 ng/ml”, the “effect on expansion of the number of BT+AG+ cells” value in experiment [1] is reported as “positive effect”. In the case of `O=C(Nc1cccc2cccnc12)c1ccc(N2C(=O)[C@@H]3[C@H](C2=O)[C@@H]2C=C[C@H]3C2)cc1` [IWR1], the “appearance of dedifferentiated cells (enrichment score)” value in experiment [2] (c10, c20, c30, IWR1 at various concentrations, inhibitor comparison at 2.5 μM) is reported as “significantly suppressed”. Besides, the “effect on hPGCLC proliferation (growth curve of BTAG double-positive cells)” value in experiment [2] (various concentrations added to maintenance and expansion medium, 30 days of culture, n=3) is “no effect”.
